Laboratory results: patent US7365200B2, “Thienopyridinone derivatives as macrophage migration inhibitory factor inhibitors” (Avanir Pharmaceuticals, priority 2005, dated 2008)

tested on: not given; assay: not given; conditions: not given

SMILES	melting point
CCOC(=O)c1c(N2CCN(C(=O)c3cccs3)CC2)c2sccc2n(CC(=O)c2ccccc2)c1=O [Compound 7, 5-oxo-4-(2-oxo-2-phenyl-ethyl)-7-[4-(thiophene-2-carbonyl)-piperazin-1-yl]4,5-dihydro-thieno[3,2-b]pyridine-6-carboxylic acid ethyl ester]	240 °C
CCOC(=O)c1c(N2CCN(C(=O)c3ccco3)CC2)c2sccc2n(CC(=O)c2ccccc2)c1=O [Compound 13, 7-[4-(furan-2-carbonyl)-piperazin-1-yl]-5-oxo-4-(2-oxo-2-phenyl-ethyl)-4,5-dihydro-thieno[3,2-b]pyridine-6-carboxylic acid ethyl ester]	246 °C
N#Cc1c(N2CCN(C(=O)c3cccs3)CC2)c2sccc2n(CC(=O)c2ccccc2)c1=O [Compound 30, 5-oxo-4-(2-oxo-2-phenyl-ethyl)-7-[4-(thiophene-2-carbonyl)-piperazin-1-yl]-4,5-dihydro-thieno[3,2-b]pyridine-6-carbonitrile]	300 °C
N#Cc1c(N2CCN(C(=O)c3cccs3)CC2)c2cscc2n(CC(=O)c2ccccc2)c1=O [Compound 48, 5-oxo-4-(2-oxo-2-phenyl-ethyl)-7-[4-(thiophene-2-carbonyl)-piperazin-1-yl]-4,5-dihydro-2-thia-4-aza-indene-6-carbonitrile]	308 °C
N#Cc1c(N2CCN(C(=O)c3cccs3)CC2)c2cscc2n(-c2cccnc2)c1=O [Compound 52, 5-oxo-4-pyridine-3-yl-7-[4-(thiophene-2-carbonyl)-piperazin-1-yl]-4,5-dihydro-2-thia-4-aza-indene-6-carbonitrile]	282 °C
Cc1csc2c1c(N1CCN(C(=O)c3cccs3)CC1)c(C#N)c(=O)n2Cc1ccccc1 [Compound 67, 7-benzyl-3-methyl-6-oxo-4-[4-(thiophene-2-carbonyl)-piperazin-1-yl]-6,7-dihydro-thieno[2,3-b]pyridine-5-carbonitrile]	223 °C

Continued, values first:

melting point	SMILES
95 to 113 °C	CCOC(=O)c1c(N2CCN(C(=O)c3cccs3)CC2)c2sccc2n(Cc2cccc(F)c2)c1=O [Compound 9, 4-(3-fluoro-benzyl)-5-oxo-7-[4-(thiophene-2-carbonyl)-piperazin-1-yl]-4,5-dihydro-thieno[3,2-b]pyridine-6-carboxylic acid ethyl ester]
286 °C	N#Cc1c(N2CCN(C(=O)c3cccs3)CC2)c2sccc2n(Cc2ccc(F)cc2)c1=O [Compound 28, 4-(4-fluoro-benzyl)-5-oxo-7-[4-(thiophene-2-carbonyl)-piperazin-1-yl]-4,5-dihydro-thieno[3,2-b]pyridine-6-carbonitrile]
227 °C	CCOC(=O)c1c(N2CCN(C(=O)c3cccs3)CC2)c2cscc2n(Cc2ccc(F)cc2)c1=O [Compound 42, 4-(4-fluoro-benzyl)-5-oxo-7-[4-(thiophene-2-carbonyl)-piperazin-1-yl]-4,5-dihydro-2-thia-4-aza-indene-6-carboxylic acid ethyl ester]
238 °C	N#Cc1c(N2CCN(C(=O)c3cccs3)CC2)c2cscc2n(Cc2ccc(F)cc2)c1=O [Compound 49, 4-(4-fluoro-benzyl)-5-oxo-7-[4-(thiophene-2-carbonyl)-piperazin-1-yl]-4,5-dihydro-2-thia-4-aza-indene-6-carbonitrile]
263 °C	COC(=O)c1ccc(Cn2c(=O)c(C#N)c(N3CCN(C(=O)c4cccs4)CC3)c3cscc32)cc1 [Compound 50, 4-{6-cyano-5-oxo-7-[4-(thiophene-2-carbonyl)-piperazin-1-yl]-5H-2-thia-4-aza-indene-4-ylmethyl}-benzoic acid methyl ester]

molecular target: T1, MIF produced by THP-1 cells (Homo sapiens, UniProt P14174); assay: Antibody binding assay of MIF inhibitors (ELISA, 96-well format); conditions: LPS-stimulated THP-1 cell supernatant incubated with compound; MIF monoclonal antibody capture ELISA; read-out: In vitro MIF IC50
T1 construct: THP-1 cell supernatant was collected and incubated with a candidate compound; endogenous in cells; host or cells: THP-1 cells, LPS-stimulated, culture supernatant
T1 sequence (P14174 2-115 limits assumed): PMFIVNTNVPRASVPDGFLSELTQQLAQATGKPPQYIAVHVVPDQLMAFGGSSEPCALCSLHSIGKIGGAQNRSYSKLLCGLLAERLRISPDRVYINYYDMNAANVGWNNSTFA
Procedure: An antibody binding assay for MIF inhibitors was performed on selected compounds in a 96-well format using MIF produced by THP-1 cells. The THP-1 cells were washed once with 250 μl of 0.1 M sodium carbonate, pH 11.4, for 1 to 2 minutes and immediately aspirated. The THP-1 cells were then washed with media containing 0.5% FBS plus 25 μg/ml heparin and then incubated in this same medium for the indicated lengths of time. The THP-1 cells were resuspended to approx. 5×10^6 cells/ml in RPMI medium containing 20 μg/ml of bacterial LPS and incubated for 18-20 hours, after which THP-1 cell supernatant was collected and incubated with a candidate compound. A 96-well ELISA plate (Costar Number 3590) was coated with a MIF monoclonal antibody (R&D Systems Catalog Number MAB289) at a concentration of 4 μg/ml for two hours at 37° C. Undiluted THP-1 cell culture supernatant incubated with the candidate compound was added to the ELISA plate for a two-hour incubation at room temperature. The wells were then washed, a biotinylated MIF polyclonal antibody (R&D Systems #AF-289-PB) was added followed by Streptavidin-HRP and a chromogenic substrate. The amount of MIF was calculated by interpolation from an MIF standard curve.

SMILES	IC50
N#Cc1c(N2CCN(C(=O)c3cccs3)CC2)c2cscc2n(CC(=O)c2ccccc2)c1=O [Compound 101]	70 nM
N#Cc1c(N2CCN(C(=O)c3cccs3)CC2)c2cscc2n(-c2cccnc2)c1=O [Compound 108]	171 nM
N#Cc1c(N2CCN(C(=O)c3cccs3)CC2)c2sccc2n(CC(=O)c2ccccc2)c1=O [Compound 110]	1730 nM
N#Cc1c(N2CCN(C(=O)c3cccs3)CC2)c2sccc2n(Cc2cccnc2)c1=O [Compound 111]	254 nM
N#Cc1c(N2CCN(C(=O)c3cccs3)CC2)c2sccc2n(Cc2cccc(F)c2)c1=O [Compound 112]	595 nM
N#Cc1c(N2CCN(C(=O)c3cccs3)CC2)c2ccsc2n(Cc2ccccc2)c1=O [Compound 116]	139 nM
Cc1csc2c1c(N1CCN(C(=O)c3cccs3)CC1)c(C#N)c(=O)n2Cc1ccccc1 [Compound 117]	12300 nM
CCOC(=O)c1c(N2CCN(C(=O)c3cccs3)CC2)c2sccc2n(CC(=O)c2ccccc2)c1=O [Compound 120]	799 nM
CCOC(=O)c1c(N2CCN(C(=O)c3ccco3)CC2)c2sccc2n(CC(=O)c2ccccc2)c1=O [Compound 123]	8770 nM

Next, values leading:

IC50	SMILES
82 nM	N#Cc1c(N2CCN(C(=O)c3cccs3)CC2)c2cscc2n(Cc2ccc(F)cc2)c1=O [Compound 102]
437 nM	COC(=O)c1ccc(Cn2c(=O)c(C#N)c(N3CCN(C(=O)c4cccs4)CC3)c3cscc32)cc1 [Compound 103]
59 nM	N#Cc1c(N2CCN(C(=O)c3cccs3)CC2)c2cscc2n(Cc2cccnc2)c1=O [Compound 104]
53 nM	CCOC(=O)c1c(N2CCN(C(=O)c3cccs3)CC2)c2cscc2n(CC(=O)c2ccccc2)c1=O [Compound 105]
40 nM	CCOC(=O)c1c(N2CCN(C(=O)c3cccs3)CC2)c2cscc2n(Cc2ccc(F)cc2)c1=O [Compound 106]
35 nM	CCOC(=O)c1c(N2CCN(C(=O)c3cccs3)CC2)c2cscc2n(Cc2ccc(C(=O)OC)cc2)c1=O [Compound 107]
233 nM	CCOC(=O)c1c(N2CCN(C(=O)c3cccs3)CC2)c2sccc2n(Cc2ccc(F)cc2)c1=O [Compound 109]
419 nM	N#Cc1c(N2CCN(C(=O)c3cccs3)CC2)c2sccc2n(Cc2ccc(F)cc2)c1=O [Compound 113]
70 nM	CCOC(=O)c1c(N2CCN(C(=O)c3cccs3)CC2)c2ccsc2n(Cc2ccccc2)c1=O [Compound 114]
11800 nM	CCOC(=O)c1c(N2CCN(C(=O)c3cccs3)CC2)c2c(C)csc2n(Cc2ccccc2)c1=O [Compound 115]
4150 nM	CCOC(=O)c1c(N2CCN(C(=O)c3ccco3)CC2)c2sccc2n(Cc2ccc(F)cc2)c1=O [Compound 119]
146 nM	CCOC(=O)c1c(N2CCN(C(=O)c3cccs3)CC2)c2sccc2n(Cc2cccc(F)c2)c1=O [Compound 121]
5840 nM	CCOC(=O)c1c(N2CCN(C(=O)c3ccco3)CC2)c2sccc2n(Cc2cccc(F)c2)c1=O [Compound 122]
269 nM	CCOC(=O)c1c(N2CCN(C(=O)c3cccs3)CC2)c2sccc2n(Cc2cccnc2)c1=O [Compound 124]
387 nM	CC(C)OC(=O)c1c(N2CCN(C(=O)c3cccs3)CC2)c2sccc2n(Cc2cccc(F)c2)c1=O [Compound 125]
648 nM	CCOC(=O)c1c(N2CCN(C(=O)c3ccc(F)s3)CC2)c2sccc2n(Cc2cccc(F)c2)c1=O [Compound 126]
32 nM	CCOC(=O)c1c(N2CCN(C(=O)c3cccs3)CC2)c2cc(C)sc2n(Cc2cccc(F)c2)c1=O [Compound 127]
